# Literature values in patent publication US20070190209A1, “All natural multivitamin and multimineral dietary supplement formulations for enhanced absorption and biological utilization” (Mannatech, Inc., priority 2006, published 2007).
# Like-named read-outs stand apart in the source and are kept apart here.
# Tests used:
# [1] = system: thyroid gland of rats; details: Radovic, et al. (2005)
# [2] = system: intestinal glucuronidation
# [3] = system: human cytosolic glutathione S-transferases (GSTs); details: van Haften, et al. (2002, 2003)
# [4] = system: phase II detoxifying enzymes; details: glutathione transferases, NAD(P)H:quinone reductases, epoxide hydrolases; literature
# [5] = system: bone components; details: in vitro, combined with zinc; Uchiyama, et al. (2005)
# [6] = system: mammalian glutathione transferases; details: Kulkarni and Kulkarni (1995)
# [7] = system: osteoclasts; details: Rao, et al. (2003)
# [8] = by decreasing or eliminating intestinal glucuronidation, Mizuma and Awazu (2004)
compound,measurement,setting,value
COc1cc(O)c(CC=C(C)C)c(O)c1C(=O)/C=C/c1ccc(O)cc1 [xanthohumol],uptake of iodine into the thyroid gland,[1],stimulates the uptake of iodine
Oc1cc(O)c2c(c1)O[C@H](c1ccc(O)c(O)c1)[C@H](O)C2 [epicatechin],absorption of model drug alpha-napthol,[2]; [8],increase the absorption
tocopherols,activity of human cytosolic GSTs,[3],inhibited
"O=C(O[C@@H]1Cc2c(O)cc(O)cc2O[C@@H]1c1cc(O)c(O)c(O)c1)c1cc(O)c(O)c(O)c1 [epigallocatechin galleate (ECGC), epigallocatechin galleate]",absorption of model drug alpha-napthol,[2],increase the absorption
C[S+]([O-])CCCC/C(=N\OS(=O)(=O)O)S[C@@H]1O[C@H](CO)[C@@H](O)[C@H](O)[C@H]1O (stereo partly shown) [glucoraphanin],induction of phase II detoxifying enzymes,[4],potent inducers
O=c1cc(-c2ccccc2)oc2cc(O)cc(O)c12 [chrysin],absorption of model drug alpha-napthol,[2]; [8],increase the absorption
tocotrieneols,activity of human cytosolic GSTs,[3],inhibited
CSCCCCC(=NOS(=O)(=O)O)S[C@@H]1O[C@H](CO)[C@@H](O)[C@H](O)[C@H]1O [glucoerucin],induction of phase II detoxifying enzymes,[4],potent inducers
CC1=C(/C=C/C(C)=C/C=C/C(C)=C/C=C/C=C(C)/C=C/C=C(C)/C=C/C2=C(C)C[C@@H](O)CC2(C)C)C(C)(C)CCC1 [beta-cryptoxanthin],anabolic effects on bone components,[5],synergistic anabolic effects
vitamin A,inhibition of mammalian glutathione transferases,[6],inhibit mammalian glutathione transferases at low concentrations
Cc1c(C)c2c(c(C)c1O)CC[C@@](C)(CCC[C@H](C)CCC[C@H](C)CCCC(C)C)O2 [alpha-tocopherol],activity of human cytosolic GSTs,[3],inhibited
O=c1c(O)c(-c2ccc(O)c(O)c2)oc2cc(O)cc(O)c12 [quercetin],absorption of model drug alpha-napthol,[2]; [8],increase the absorption
CC(C)=CCC/C(C)=C/C=C/C(C)=C/C=C/C(C)=C/C=C/C=C(C)/C=C/C=C(C)/C=C/C=C(\C)CCC=C(C)C [lycopene],formation of osteoclasts and osteoclastic mineral resorption,[7],prevented the formation of osteoclasts and osteoclastic mineral resorption
